Counter-ions that a name gives are not always drawn.
Experiments:
Assay type in all cases: in vivo
Male Slc-ddy mice [1] = test: Inhibitory effect on the motor coordination (rotating rod test); conditions: for Inhibitory effect on motor coordination Effect: 300 - 600 mg/10 ml/kg oral, 30 min, compared with eperisone hydrochloride
Procedure: Male Slc-ddy mice of 20 - 25 g (5 weeks old) were used in groups of 7 - 10. The test compounds were used dissolved or suspended in 0.5 % CMC or 0.5 % Tween 80 solution. Each test compound (300 - 600 mg/10 ml/kg) was orally administered to the mice, and after 30 min the mice were put on a 3-cm diameter rod rotating at a speed of 10 min⁻¹ in a direction opposite to the rotation direction, and the time of staying on it was measured to a maximum of 180 s. Those falling off of the rotating rod within 60 s were judged as having an inhibitory effect on the motor coordination and, with the number of cases as index, comparison was made with the reference compound (eperisone hydrochloride).
The mice were trained in advance to be able to stay on the rotating rod for more than 300 s, and those capable of staying on it for more than 250 s immediately before testing were used.

Male Slc-ddy mice [2] = test: Anti-nicotinic effect (survival after intravenous nicotine bitartrate); conditions: 100 mg/10 ml/kg oral, 30 min, compared with eperisone hydrochloride
Procedure: Experimental Method of Male Slc-ddy mice/30 - 35 g (6 weeks old) were used as test animals in groups of 7 - 10. The test compounds (100 mg/10 ml/kg) were orally administered to the mice, and after 30 min, nicotine bitartrate (3 mg/10 ml/kg) was administered intravenously, and the number of animals killed due to tonic convulsion was counted. The surviving animals were judged as having an anti-nicotinic effect, and with the number thereof as index the comparison concerning the anti-nicotinic effect was made with the reference compound (eperisone hydrochloride).

Male Slc-ddy mice [3] = test: Anti-strychnine effect (time from tonic convulsions to death after subcutaneous strychnine nitrate); conditions: mice, 100 mg/10 ml/kg oral, 30 min; compared with eperisone hydrochloride
Procedure: Strychnine is known to enhance reflex stimulation, among others, of spinal cord to induce convulsions. If this effect of strychnine can be suppressed by administration of any of the above-mentioned compounds, this compound is expected to have a central muscle relaxation effect.
Male Slc-ddy mice of 25 - 30 g (5 weeks old) were used in groups of 7 - 10.
The test compounds (100 mg/10 ml/kg) were orally administered to the mice, and after 30 min, 1.5 mg/10 ml/kg of strychnine nitrate was administered subcutaneously, and the time was measured from the occurence of tonic convulsions to the death of the animals. Cases in which this time was extended to 6 min or more were judged as corresponding to an anti-strychnine effect, and with the number of such cases as index, comparison was made with the reference compound (eperisone hydrochloride). […] The ED₅₀ values (95% confidence limit) for the anti-strychnine effect were determined by the Litchfield-Wilcoxon method and are shown in Table 3.

Question: Which “Inhibitory effect on motor coordination Effect” value (Male Slc-ddy mice [1]) does the source give for CCc1ccc(C(=O)C(C)CN2CCN(CC(C)C(=O)c3ccc(CC)cc3)CC2)cc1.Cl.Cl (stereo not drawn) [Compound 1, N,N'-bis[2-(4-ethylbenzoyl)-propyl]-piperazine dihydrochloride] here?
Answer: 0

Question: And the “Inhibitory effect on motor coordination Durability” value (Male Slc-ddy mice [1]; oral)?
Answer: -

Question: How did the “Anti-nicotinic effect Effect” value (Male Slc-ddy mice [2]) turn out when CC(Cn1ccnc1)C(=O)c1ccc(Cl)cc1 (stereo not drawn) [Compound 3, hydrochloride] was run?
Answer: 0

Question: And the “Inhibitory effect on motor coordination Effect” value (Male Slc-ddy mice [1])?
Answer: 0

Question: How did the “Anti-nicotinic effect Effect” value (Male Slc-ddy mice [2]) turn out when CCc1ccc(C(=O)C(CC)CN2CCCCC2)cc1.Cl (stereo not drawn) [Compound 4, 2-ethyl-1-(4-ethylphenyl)-3-piperidinopropan-1-one hydrochloride] was run?
Answer: 0

Question: And the “Inhibitory effect on motor coordination Effect” value (Male Slc-ddy mice [1])?
Answer: 0

Question: What about the “Inhibitory effect on motor coordination Durability” value (Male Slc-ddy mice [1]; oral) of the same compound?
Answer: -

Question: Which “Anti-nicotinic effect Effect” value (Male Slc-ddy mice [2]) does the source give for CCc1ccc(C(=O)C(CN2CCCCC2)C(C)C)cc1 (stereo not drawn) [Compound 5, 1-(4-ethylphenyl)-2-isopropyl-3-piperidinopropan-1-one] here?
Answer: 0

Question: And the “Inhibitory effect on motor coordination Effect” value (Male Slc-ddy mice [1])?
Answer: 0

Question: And the “Inhibitory effect on motor coordination Durability” value (Male Slc-ddy mice [1]; oral)?
Answer: -

Question: Which “Anti-nicotinic effect Effect” value (Male Slc-ddy mice [2]) does the source give for CCc1ccc(C(=O)C(C)(C)CN2CCCCC2)cc1 [Compound 6, 1-(4-ethylphenyl)-2,2-dimethyl-3-piperidinopropan-1-one] here?
Answer: 0

Question: And the “Inhibitory effect on motor coordination Effect” value (Male Slc-ddy mice [1])?
Answer: ◎

Question: With CCc1ccc(C(=O)C(CN2CCCCC2)c2ccccc2)cc1.Cl (stereo not drawn) [Compound 7, 1-(4-ethylphenyl)-2-phenyl-3-piperidinopropan-1-one hydrochloride] as the compound, how does the “Anti-nicotinic effect Effect” value (Male Slc-ddy mice [2]) read?
Answer: 0

Question: What about the “Inhibitory effect on motor coordination Effect” value (Male Slc-ddy mice [1]) of the same compound?
Answer: 0

Question: And the “Inhibitory effect on motor coordination Durability” value (Male Slc-ddy mice [1]; oral)?
Answer: -

Question: How did the “Inhibitory effect on motor coordination Effect” value (Male Slc-ddy mice [1]) turn out when CC(Cn1ccnc1)C(=O)c1ccccc1 (stereo not drawn) [Compound 8, 3-(1H-imidazol-1-yl)-2-methyl-1-phenyl-propan-1-one] was run?
Answer: 0

Question: For CCCc1ccc(C(=O)C(C)Cn2ccnc2)cc1 (stereo not drawn) [Compound 9, 3-(1H-imidazol-1-yl)-2-methyl-1-(4-n-propylphenyl)-propan-1-one], which “Anti-nicotinic effect Effect” value (Male Slc-ddy mice [2]) is on record?
Answer: ◎

Question: And the “Inhibitory effect on motor coordination Effect” value (Male Slc-ddy mice [1])?
Answer: 0

Question: CC(Cn1ccnc1)C(=O)c1ccc(C(C)C)cc1 (stereo not drawn) [Compound 10, 3-(1H-imidazol-1-yl)-1-(4-isopropylphenyl)-2-methylpropan-1-one] was tested. Which “Anti-nicotinic effect Effect” value (Male Slc-ddy mice [2]) did it give?
Answer: 0

Question: What about the “Inhibitory effect on motor coordination Effect” value (Male Slc-ddy mice [1]) of the same compound?
Answer: 0

Question: How did the “Anti-strychnine effect Effect” value (Male Slc-ddy mice [3]) turn out when CC(Cn1ccnc1)C(=O)c1ccc(C(C)(C)C)cc1 (stereo not drawn) [Compound 11, 1-(4-t-butylphenyl)-3-(1H-imidazol-1-yl)-2-methylpropan-1-one] was run?
Answer: 0

Question: And the “Inhibitory effect on motor coordination Effect” value (Male Slc-ddy mice [1])?
Answer: 0

Question: What does the source list for CC(Cn1ccnc1)C(=O)c1ccc(-c2ccccc2)cc1 (stereo not drawn) [Compound 12, 1-(4-biphenyl)-3-(1H-imidazol-1-yl)-2-methylpropan-1-one]?
Answer: Anti-nicotinic effect Effect (Male Slc-ddy mice [2]): ◎; Inhibitory effect on motor coordination Durability (Male Slc-ddy mice [1]; oral): -

Question: What does the source list for Cc1ccc(C(=O)C(C)Cn2ccnc2)c(C)c1.Cl (stereo not drawn) [Compound 13, 3-(1H-imidazol-1-yl)-2-methyl-1-(2,4-dimethylphenyl)-propan-1-one hydrochloride]?
Answer: Anti-nicotinic effect Effect (Male Slc-ddy mice [2]): ◎; Inhibitory effect on motor coordination Effect (Male Slc-ddy mice [1]): 0; Inhibitory effect on motor coordination Durability (Male Slc-ddy mice [1]; oral): -

Question: For CC(Cn1ccnc1)C(=O)c1ccc2ccccc2c1 (stereo not drawn) [Compound 15, 3-(1H-imidazol-1-yl)-2-methyl-1-(2-naphthyl)-propan-1-one], which “Anti-nicotinic effect Effect” value (Male Slc-ddy mice [2]) is on record?
Answer: ◎

Question: And the “Anti-strychnine effect Effect” value (Male Slc-ddy mice [3])?
Answer: ◎

Question: What about the “Inhibitory effect on motor coordination Effect” value (Male Slc-ddy mice [1]) of the same compound?
Answer: 0

Question: What about the ED50 (Male Slc-ddy mice [1]; Mus musculus, 0.5 h, oral, rotating rod 30 min after administration, falling off within 60 s counted as positive, 95% confidence limit in brackets, read-out: ED₅₀ values for the inhibitory effect on the motor coordination) of the same compound?
Answer: 152 mg/kg

Question: What about the “Inhibitory effect on motor coordination Durability” value (Male Slc-ddy mice [1]; oral) of the same compound?
Answer: -

Question: What about the “inhibitory effect on the motor coordination compared with eperisone hydrochloride” value (Male Slc-ddy mice [1]; oral) of the same compound?
Answer: stronger inhibitory effect on the motor coordination than eperisone hydrochloride

Question: With Cc1ccc(C(=O)C(C)Cn2ccnc2)cc1 (stereo not drawn) [Compound 16, 3-(1H-imidazol-1-yl)-2-methyl-1-(4-methylphenyl)-propan-1-one] as the compound, how does the “Anti-nicotinic effect Effect” value (Male Slc-ddy mice [2]) read?
Answer: ◎

Question: And the “Inhibitory effect on motor coordination Effect” value (Male Slc-ddy mice [1])?
Answer: ◎

Question: For CCc1ccc(C(=O)CCn2ccnc2)cc1 [Compound 17, 1-(4-ethylphenyl)-3-(1H-imidazol-1-yl)-propan-1-one], which “Anti-nicotinic effect Effect” value (Male Slc-ddy mice [2]) is on record?
Answer: ○

Question: What about the “Inhibitory effect on motor coordination Effect” value (Male Slc-ddy mice [1]) of the same compound?
Answer: ○

Question: What about the “Inhibitory effect on motor coordination Durability” value (Male Slc-ddy mice [1]; oral) of the same compound?
Answer: -

Question: Which “Anti-nicotinic effect Effect” value (Male Slc-ddy mice [2]) does the source give for CCc1ccc(C(=O)C(CC)Cn2ccnc2)cc1.Cl (stereo not drawn) [Compound 18, 2-ethyl-1-(4-ethylphenyl)-3-(1H-imidazol-1-yl)-propan-1-one hydrochloride] here?
Answer: ◎

Question: What about the “Inhibitory effect on motor coordination Effect” value (Male Slc-ddy mice [1]) of the same compound?
Answer: ◎

Question: CCc1ccc(C(=O)C(Cn2ccnc2)c2ccccc2)cc1 (stereo not drawn) [Compound 19, 1-(4-ethylphenyl)-3-(1H-imidazol-1-yl)-2-phenylpropan-1-one] was tested. Which “Anti-nicotinic effect Effect” value (Male Slc-ddy mice [2]) did it give?
Answer: ◎

Question: And the “Inhibitory effect on motor coordination Effect” value (Male Slc-ddy mice [1])?
Answer: ◎

Question: And the “Inhibitory effect on motor coordination Durability” value (Male Slc-ddy mice [1]; oral)?
Answer: -

Question: Which “Anti-nicotinic effect Effect” value (Male Slc-ddy mice [2]) does the source give for CC(Cn1ccnc1)C(=O)c1ccc2c(c1)Cc1ccccc1-2 (stereo not drawn) [Compound 20, 1-(9H-fluoren-2-yl)-3-(1H-imidazol-1-yl)-2-methylpropan-1-one] here?
Answer: ◎

Question: And the “Anti-strychnine effect Effect” value (Male Slc-ddy mice [3])?
Answer: ○

Question: What about the “Inhibitory effect on motor coordination Effect” value (Male Slc-ddy mice [1]) of the same compound?
Answer: ◎

Question: What about the “Inhibitory effect on motor coordination Durability” value (Male Slc-ddy mice [1]; oral) of the same compound?
Answer: -

Question: CCc1ccc(C(=O)C(C)n2ccnc2)cc1.Cl (stereo not drawn) [Compound 21, 1-(4-ethylphenyl)-2-(1H-imidazol-1-yl)-propan-1-one hydrochloride] was tested. Which “Anti-nicotinic effect Effect” value (Male Slc-ddy mice [2]) did it give?
Answer: ◎

Question: What about the “Inhibitory effect on motor coordination Durability” value (Male Slc-ddy mice [1]; oral) of the same compound?
Answer: -

Question: Which “Anti-nicotinic effect Effect” value (Male Slc-ddy mice [2]) does the source give for CCc1ccc(C(O)C(C)Cn2ccnc2)cc1 (stereo not drawn) [Compound 22, 1-(4-ethylphenyl)-3-(1H-imidazol-1-yl)-2-methylpropan-1-ol] here?
Answer: ◎

Question: What about the “Anti-strychnine effect Effect” value (Male Slc-ddy mice [3]) of the same compound?
Answer: ○

Question: And the “Inhibitory effect on motor coordination Effect” value (Male Slc-ddy mice [1])?
Answer: ◎

Question: What about the “inhibitory effect on the motor coordination compared with eperisone hydrochloride” value (Male Slc-ddy mice [1]; oral) of the same compound?
Answer: stronger inhibitory effect on the motor coordination than eperisone hydrochloride

Question: What does the source list for CCc1ccc(C(=O)C(CN2CCCC2)c2ccccc2)cc1.Cl (stereo not drawn) [Compound 24, 1-(4-ethylphenyl)-2-phenyl-3-(pyrrolidin-1-yl)-propan-1-one hydrochloride]?
Answer: Anti-nicotinic effect Effect (Male Slc-ddy mice [2]): ○; Inhibitory effect on motor coordination Effect (Male Slc-ddy mice [1]): ○

Question: With CC(C)(CN1CCCC1)C(=O)c1ccc(Cl)cc1 [Compound 25, 1-(4-chlorophenyl)-2,2-dimethyl-3-(pyrrolidin-1-yl)-propan-1-one] as the compound, how does the “Anti-nicotinic effect Effect” value (Male Slc-ddy mice [2]) read?
Answer: ○

Question: And the “Inhibitory effect on motor coordination Effect” value (Male Slc-ddy mice [1])?
Answer: ◎

Question: Which “Anti-nicotinic effect Effect” value (Male Slc-ddy mice [2]) does the source give for CCc1ccc(C(=O)C(C)Cn2ccnc2C)cc1 (stereo not drawn) [Compound 26, 1-(4-ethylphenyl)-2-methyl-3-(2-methyl-1H-imidazol-1-yl)-propan-1-one] here?
Answer: ◎

Question: And the “Inhibitory effect on motor coordination Effect” value (Male Slc-ddy mice [1])?
Answer: ◎

Question: What about the “Inhibitory effect on motor coordination Durability” value (Male Slc-ddy mice [1]; oral) of the same compound?
Answer: -

Question: Which “Anti-nicotinic effect Effect” value (Male Slc-ddy mice [2]) does the source give for CCc1ccc(C(=O)C(C)Cn2cncn2)cc1 (stereo not drawn) [Compound 27, 1-(4-ethylphenyl)-2-methyl-3-(1H-1,2,4-triazol-1-yl)-propan-1-one] here?
Answer: ○

Question: And the “Inhibitory effect on motor coordination Effect” value (Male Slc-ddy mice [1])?
Answer: ○

Question: What about the “Inhibitory effect on motor coordination Durability” value (Male Slc-ddy mice [1]; oral) of the same compound?
Answer: -

Reference: patent EP0423524A2, “Propiophenone derivatives and their preparation and pharmaceutical use” (MARUHO Co., Ltd., priority 1989, dated 1991)
